# Experimental data: publication PMC6316600, “Analgesic Activity of Acid-Sensing Ion Channel 3 (ASIС3) Inhibitors: Sea Anemones Peptides Ugr9-1 and APETx2 versus Low Molecular Weight Compounds” (Marine Drugs, 2018)
# Bridge positions count the residues as written; N and C are the ends. Ends that are not written are not given here.
# What was measured:
# [1] = test system: CFA-induced thermal hyperalgesia; conditions: rats; cited from earlier work
# Experimental: An inhibition of ASIC3 was reported to be an attractive approach to producing analgesia. […] Other nonspecific substances can also influence ASIC3 activity. […] Several ligands with inhibitory properties were found for this receptor, each of which was able to induce analgesia in animal tests. The most well-known inhibitor APETx2 in various studies has been tested on models of acid-induced muscle pain model, CFA-induced inflammatory pain model (at doses of 0.07, 0.22 and 2.2 µM). Ugr9-1 was studied in models of CFA-induced thermal hyperalgesia and acetic acid writhing test (at doses of 0.5, 0.1, and 0.01 mg/kg). […] The nonspecific actions on other cellular targets and the changes of ASIC3 involvement in the inflammatory process induced by the high antagonists’ concentration for 2 h are suspected. We conclude that the inhibition of both components of ASIC3 currents could be beneficial but could be reversed by hormesis in high doses and during a long exposure to ...
# ASIC3 = conditions: cited from earlier work
# Description: (§1) An inhibition of ASIC3 was reported to be an attractive approach to producing analgesia. […] Other nonspecific substances can also influence ASIC3 activity.
# animal models of pain = conditions: cited from earlier work
# [2] = test system: proton-gated currents in DRG neurons; design: method as in PMID 25395088; conditions: cited from earlier work
# [3] = test system: voltage-gated Na^+-channels; design: method as in PMID 22648244; conditions: cited from earlier work
# ASIC1a = conditions: cited from earlier work
# Description: as §1
# ASIC1b = conditions: cited from earlier work
# Description: as §1
# human ASIC3 = molecular target: T1, human ASIC3 (Homo sapiens, UniProt Q9UHC3); test: Inhibition of transient hASIC3 current, two-electrode voltage clamp, Xenopus laevis oocytes; type: cell-based
# T1 construct: host or cells: Xenopus laevis oocytes (cRNA injection)
# T1 sequence (Q9UHC3 1-531): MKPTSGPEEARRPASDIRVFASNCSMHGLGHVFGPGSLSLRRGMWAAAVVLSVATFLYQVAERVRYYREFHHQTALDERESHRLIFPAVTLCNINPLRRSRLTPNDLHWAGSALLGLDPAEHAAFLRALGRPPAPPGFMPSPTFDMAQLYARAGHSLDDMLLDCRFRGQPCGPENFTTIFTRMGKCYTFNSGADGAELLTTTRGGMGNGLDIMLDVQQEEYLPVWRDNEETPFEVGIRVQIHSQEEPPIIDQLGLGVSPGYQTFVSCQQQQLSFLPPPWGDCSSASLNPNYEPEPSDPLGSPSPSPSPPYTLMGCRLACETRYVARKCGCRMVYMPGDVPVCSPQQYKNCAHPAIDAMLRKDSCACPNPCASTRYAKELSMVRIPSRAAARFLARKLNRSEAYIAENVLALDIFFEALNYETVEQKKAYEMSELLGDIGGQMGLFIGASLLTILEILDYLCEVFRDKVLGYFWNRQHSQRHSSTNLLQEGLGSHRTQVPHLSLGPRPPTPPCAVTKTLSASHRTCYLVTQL
# Experimental: The activity of ligands was checked on human ASIC3 (hASIC3) channels expressed in Xenopus laevis oocytes. […] Two different protocols were used to reveal the effects of ligands on sustained and transient components of acid-induced hASIC3 currents. The influence of the compounds on the transient current amplitude was estimated after preincubation for 15 s before the activation in a low alkali bath solution (pH 7.8), which ensured an absence of steady-state desensitization for the transient current (Figure 1A). The compounds’ inhibition effectiveness was calculated using the value of maximal amplitudes. […] The inhibitory effect was concentration-dependent and fit well using a logistic equation.
# Figure 1 Comparison of ligands’ antagonistic effects on hASIC3 channels. Whole-cell currents were induced by pH drops and recorded at the holding potential −50 mV. (A) Effect of ligands on the transient component of current at conditioning pH 7.8. The control trace is shown first; (B) Effect of ligands on the sustained component at conditioning pH 7.3. The black line is the control trace, and the red line is the trace of activation in the presence of a ligand. Dose-response curves for transient (C) and sustained (D) currents’ inhibitions are shown. Data are shown as mean ± SEM (n = 4–6) and fitted with the logistic equation (solid lines).
# X. laevis oocytes were removed surgically and defolliculated by collagenase (Sigma-Aldrich, Moscow, Russia). Oocytes were injected with 2.5 to 10 ng of human ASIC3 cRNA (AF057711.1). The cRNA transcripts were synthesised from a NaeI-linearized ASIC3 cDNA template (pcDNA3.1+humanASIC3 subcloned from clone EX-Q0260- B02 (GeneCopoeia, Inc., Rockville, MD USA) using a HiScribe T7 High Yield RNA Synthesis Kit (New England Biolabs, Ipswich, MA, USA) according to the manufacturer’s protocol for capped transcripts. After the injection, oocytes were kept for 3 to 6 days at 19° in a ND-96 medium containing (in mM) 96 NaCl, 2 KCl, 1.8 CaCl2, 1 MgCl2, and 5 HEPES titrated to pH 7.4 with NaOH supplemented with gentamycin (50 µg/mL). Two-electrode voltage clamp recordings were performed using a GeneClamp 500 amplifier (Axon Instruments, Union City, CA, USA), and the data were filtered at 20 Hz and digitized at 100 Hz by an AD converter L780 (LCard, Moscow, Russia) using in-house software. To induce transient and/or sustained currents, two different protocols with different conditioning pH were used. Microelectrodes were filled with a 3 M KCl solution. The working buffer solution was ND-96 titrated by NaOH to pH 7.8 or 7.3. The solution for the pH shift was constructed based on the ND-96 solution, in which 5 mM HEPES was replaced with 10 mM acetic acid (pH 4.0) or 10 mM MES (pH 5.5) in a supplementary 0.1% BSA solution. The duration of the activation pulses was 3.5 s.
# The analysis of the electrophysiological data was performed using the OriginPro 8.6 programme.
# hERG channels = conditions: cited from earlier work
# Experimental: Moreover, APETx2 potentiates rat ASIC1b and ASIC2a at concentrations of 3–10 µM (30–100-fold higher than its ASIC3 inhibitory concentration), which may have implications for its use in in vivo experiments ...
# mice = test: Open field test; type: in vivo, CD-1 mice; conditions: 1 mg/kg intramuscular, 4 h before; n = 6–7
# Experimental: An open field test was carried out on mice to estimate the possible sedative effects of compounds administration. No statistically significant changes were detected between ASIC3 antagonist-treated groups and the control animals group in 5-min observations of 12 parameters.
# Figure 2 Open field experiments on mice. Administration of compounds at a 1 mg/kg dose intramuscularly was done 4 h before of the measurements. (A) Travelling distance and (B) locomotion activity presented as mean ± SEM for 5-min recording period (n = 6–7).
# Adult male CD-1 mice (Animal Breeding Facility Branch of Shemyakin-Ovchinnikov Institute of Bioorganic Chemistry, Russian Academy of Sciences, Pushchino, Russia) weighing 20–25 g were used. Animals that originally passed clinical examination that confirmed no deviations in health were divided into groups (at least eight male mice per group) using the principle of randomization. The average body weight of animals in each group was not statistically different between groups. Animals were housed at room temperature (23 ± 2 °C) and subjected to a 12-h light-dark cycle with food and water available ad libitum. All experiments were performed after receiving approval from the Animal Care and Use Committee of the Branch of the Institute of Bioorganic Chemistry, Russian Academy of Sciences (IBCh RAS) (Pushchino, Russia Federation). The samples were administered intramuscularly 2 h before testing (4 h in the open field test). The initial dose of 1 mg/kg was investigated for all samples, which was further reduced 5, 50, and 500 times for peptides.
# In the locomotion measurements, exploration and anxiety were evaluated in the motor activity test on a computerized TSE Multi Conditioning System (TSE Systems GmbH, Bad Homburg, Germany). Four hours after the administration of the sample, the measurement was made, which lasted for 3 min. […]
# The data significance in animal tests was determined by an analysis of variance followed by a Tukey’s test. […]
compound,measurement,setting,value
CC(C)C1c2cc(C3CC3c3ccc4cc(C(=N)N)ccc4c3)ccc2CCN1C (stereo not drawn) [A-317567],"Analgesic effect, CFA inflammatory thermal hyperalgesia",[1],produced an analgesic effect
same,Inhibition of ASIC3 sustained and transient currents,ASIC3,blocked ASIC3’s sustained and transient currents
"COc1cc2c(cc1OC)[C@@H]1Cc3ccc(OC)c(OC)c3CN1CC2 [Levo-tetrahydropalmatine, reference compound]",Nociceptive response to intraplantar acetic acid,animal models of pain; rats,inhibited the nociceptive response to intraplantar acetic acid injections
same,Effect on amplitude of proton-gated currents,[2],decreased the amplitude of proton-gated currents
N=C(N)NC(=O)c1nc(Cl)c(N)nc1N [amiloride],Inhibition of ASICs / ASIC3,ASIC3,nonspecific inhibitory effect on ASICs
COc1ccc2ccc(=O)oc2c1CC=C(C)C [osthol],Block of voltage-gated Na+-channels,[3],block voltage-gated Na^+-channels
same,Inhibition of ASIC3,ASIC3,inhibit ASIC3
O=C(O)c1ccccc1O [salicylic acid],Inhibition of ASIC3 / ASICs currents,ASIC3; sensory neurons and heterologous-expressed ASIC3,inhibit ASICs currents directly on sensory neurons and heterologous-expressed ASIC3 channels
CCCCNc1ccc(C(=O)OCCN(C)C)cc1 [tetracaine],Inhibition of ASIC1a currents,ASIC1a,inhibited the ASIC1a and ASIC1b currents
same,Inhibition of transient ASIC3 currents,ASIC3; dependence on extracellular pH,inhibit the transient ASIC3 currents in a concentration-dependent manner
same,Inhibition of ASIC1b currents,ASIC1b,inhibited the ASIC1a and ASIC1b currents
"GTACSCGNSKGIYWFYRPSCPTDRGYTGSCRYFLGTCCTPAD (disulfide 4-37, 6-30, 20-38) [APETx2]",IC50,human ASIC3,344 ± 80 nM
same,Inhibition of hERG channels,hERG channels,reducing the maximal current amplitude and shifting the voltage dependence of activation to more positive potentials
same,"Travelled distance, time spent freezing, distance in the central area versus control",mice,each of these differences was nonsignificant
"psalmotoxin 1 (EDCIPKWKGCVNRHGDCCEGLECWKRRRSFEVCVPKTPKT; UniProt P60514 1-40, looked up) [reference compound]",Analgesic effect by blockade of ASIC1a in CNS,animal models of pain; CNS,activation of the endogenous enkephalin pathway and potent analgesic effects
